Measurements from US20230003721A1, “MITOTHERAPEUTICS FOR THE TREATMENT OF BRAIN DISORDERS” (The University of Florida Research Foundation, Inc., priority 2019, published 2023).
Counter-ions that a name gives are not always drawn. Like-named read-outs stand apart in the source and are kept apart here.

What was measured:
[1] = test system: primary neurons; assay: CellTiter-Glo luminescence-based ATP assay; type: cell-based, mouse; settings: for ATP: ATP orthogonal screen, 24 h; for Emax: maximal percent increase relative to in-plate DMSO controls, read-out: ATP (Effect-size)
Outline: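 Primary neurons treated from DIV13 for 24 h with compound or DMSO. After part of the medium was removed, CellTiter-Glo reagent was added; plates were shaken 10 min at 200 rpm, kept 2 min in the dark at room temperature, and luminescence read as total ATP.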

[2] = test system: primary neurons; assay: TMRM fluorescence assay of inner mitochondrial membrane potential (ΔΨm); settings: for Emax: read-out: TMRM (Effect-size); for TMRM Primary: primary screen, 12.5 μM; for TMRM Primary / TMRM Rescreen: 24 h
[3] = test system: primary neurons; settings: 75 μM peroxide, 12.5 μM compound, 48 h
[4] = test system: Drosophila model for AD; assay: Drosophila model for AD: neuronal mitochondrial morphology; type: in vivo; settings: cell bodies of neurons; 100 micromolar, 15 days-of-age
From the text: To assay representative compounds in this example, we employed a Drosophila model for AD (X. Wang et al., Mol. Neurobiol. […] Flies expressing this toxic protein show: […] Drugs that show efficacy therefore: enlarge neuronal mitochondria (increased volume, increased surface area, increased length), reduce sphericity, and reduce the number of mitochondria compared to untreated Alzheimer's flies. The AD model flies were collected immediately after eclosion from the pupal case and transferred to food that was laced with drug at 100 micromolar concentration. The flies were aged to 15 days-of-age: this is when the mitochondrial pathology is very robust. We compared the morphology of mitochondria collected from these flies treated with drug and compared them to the mitochondria of flies that remained untreated.

[5] = test system: primary forebrain neurons; assay: cells; settings: 24 h; for Dendritic Mt CA / Neurite Area: rescreen, 12.5 μM, vs DMSO wells; for EC50: Mus musculus, Neuron
[6] = test system: isolated forebrain mitochondria; assay: ATP production of isolated mitochondria (luciferase-based kinetic assay); type: biochemical, mouse
Procedure: Isolation of mitochondria. For the ATP synthesis experiments of FIG. 6, forebrains from P0 pups were dissected as described above. 2×10^7 cells were harvested for high-purity mitochondrial isolation using the Qiagen QProteome kit. The mitochondrial pellet was resuspended in 500 μl mitochondria storage buffer (provided by kit) and kept on ice until further use.
ATP production of isolated forebrain mitochondria of P0 pups was measured by ATP Determination Kit (Molecular Probes). […] The reactions were initiated by the addition of 1 mM ADP (deprived of ATP contamination by adding 3 U/ml hexokinase to 10 mM of ADP in 50 mM Tris-HCl, 20 mM MgCl2 and 22 mM glucose, incubating the solution at 37° C. for 1 hr and heat inactivating the hexokinase at 100° C. for 3 min). Luminescence was recorded every 15-30 sec for 1 hr at 580±40 nm.

[7] = test system: primary neurons; assay: Mitochondrial morphology and neurite area after functional modulators; type: cell-based, mouse; parameters: key to Neurite Area: non-significant (n.s.); settings: for Mitochondrial Morphology / Neurite Area: significant change
Procedure: Mitochondrial morphology and neurite area measurements. Mitochondrial morphology and neurite area were quantified using methods described by Varkuti et al, 2020. Briefly, Cre-dependent mitochondrial targeted GFP2 (mito-GFP) ROSA26 knock-in mice were crossed with Ai14 (007908, The Jackson Laboratory) expressing cytosolic-tdTomato, and the forebrain of P0 pups were isolated and primary neurons were cultured as described above. AAV9 virus containing the iCRE sequence driven by the neuron specific CaMKII promoter was added to the cell culture at plating and 75% of the media replaced 4 h after plating. […] Z-projected images of the green channel were preprocessed (background subtraction: rolling ball, radius=3; median filtering: radius=1) and somatic mitochondria were removed (see details in Varkuti et al, Science Advances 6 (2020) eaaw8702). Red channel images were also preprocessed (tubeness filter, soma removal). Preprocessed images were segmented by GE Developer software (object-based, kernel size: 3). […] The length and circularity measurements for mitochondria were aggregated using the median and the area for neurites using the sum. After removing empty fields and outlier values from the fields, aggregated field values were averaged to well values (4 fields/well, 12 wells/compound). Robust Z-scores were calculated using DMSO-treated wells for each well ((mediancompound−medianDMSO)/median absolute deviationDMSO), well values were averaged for each compound.
A high-content assay was developed in parallel to monitor aspects of mitochondrial dynamics in primary cultured neurons that conditionally express (Cre recombinase dependent) mitochondrial-tagged GFP and cytosolic tdTomato reporters (Varkuti et al., 2020). We monitored two aspects of neuritic mitochondrial dynamics: (1) the health of mitochondria as measured by the average circularity of axonal mitochondria, since defective mitochondria targeted for mitophagy become circular in shape, and (2) the balance between fission/fusion measured by the average length of dendritic mitochondria. […] FIG. 19A illustrates the results of surveying a collection of functional modulators selected from 5 different structural clusters (FIG. 17), quantified as robust z-scores relative to DMSO-treated control neurons.

[8] = test system: primary neurons; assay: Oxygen consumption rate (OCR) of permeabilized primary neurons; type: cell-based, mouse
Procedure: The oxygen consumption rate (OCR) of permeabilized neurons and isolated brain mitochondria (from 9-month old mice) was measured by the XF96 Extracellular Flux analyzer (Seahorse Bioscience). […] Prior to the start of the OCR measurement, all but 30 μl of Neurobasal A/B27 culture medium was removed from each well. Cells were washed twice with pre-warmed MAS-BSA assay medium (4 mg/ml fatty-acid free BSA, pH=7.2) and incubated in 180 μl at 37° C. for 5 min. Following the cartridge calibration, cells were loaded into the XF96 Extracellular Flux analyzer and further equilibrated for 10 min with two cycles of 3 min mixing and 2 min resting prior to the first measurement of basal respiration. OCR were measured at 37° C. under basal conditions followed by the sequential injection of pre-warmed 10× mitochondrial substrates/ADP (20 μl), oligomycin (22 μl), FCCP (24 μl), and rotenone/antimycin A (26 μl). The final concentrations of injected compounds were as follows: 10 mM mitochondrial substrates (pyruvate/malate or succinate), 1 mM ADP, 1.5 μM oligomycin, 3 μM FCCP, 2 μM rotenone/antimycin A. Saponin (25 μg/ml) was co-injected with substrate/ADP to permeabilize the cells and stimulate ADP-dependent respiration. Two baseline measurements were obtained prior to any injection and 2 response measurements were collected after each injection except for after FCCP addition which consisted of 1 measurement (9 total measurements in each assay). Each measurement cycle consisted of 2 min mixing, 2 min waiting, and 3 min data acquisition. This protocol allowed for sequential assessment of basal cell respiration, maximal mitochondrial respiratory capacity (State 3 with substrate/ADP), proton leak (State 4o with oligomycin), uncoupled maximal respiration (State 3U with FCCP) and non-mitochondrial respiration with the Complex I/Complex III inhibitors, rotenone/antimycin A. Cells were washed twice with MAS buffer to remove residue BSA contained in the assay medium, lysed in 50 μl lysis buffer (25 mM HEPES, 1 mM EGTA, 1 mM EDTA, 0.1% SDS, 1% NP-40, 1× protease and phosphatase inhibitor, pH 7.0 adjusted with NaOH) and total protein was determined by BCA assay. Oxygen consumption was normalized to total protein content as pmol O2/min/ug total protein.
Oxygen consumption rate (OCR) or extracellular acidification rate (ECAR) measurements from permeabilized neurons and isolated brain mitochondria were performed using the XF96 Extracellular Flux analyzer (Seahorse Bioscience). For assays using cultured neurons, primary neurons were dissociated from the forebrains of P0 pups, seeded at 1.9×10^4/well (PDL-coated XF96 plate), cultured to DIV13 and incubated with selected compounds or DMSO (0.1%) for 24 h. Prior to the start of the OCR measurement, all but 30 μl of Neurobasal A/B27 culture medium was removed from each well. Cells were washed twice with pre-warmed MAS-BSA assay medium (70 mM sucrose, 220 mM mannitol, 10 mM KH2PO4, 5 mM MgCl2, 2 mM HEPES and 1 mM EGTA, 4 mg/ml fatty-acid free BSA, pH=7.2 adjusted using KOH) and incubated in 180 ul MAS-BSA medium at 37° C. in a CO2-free incubator for 5 m. […] OCR and ECAR were measured at 37° C. under basal conditions followed by the sequential injection of pre-warmed 10× mitochondrial substrates/ADP (20 μl), oligomycin (22 μl), FCCP (24 μl), and rotenone/antimycin A (26 μl).

[9] = Mus musculus, Primary neuron, dose response

Row | Compound | ATP [1] | Emax [1, 9] | Emax ([2]; Mus musculus, Primary neuron) | TMRM Primary [2] | TMRM Rescreen [2] | protection from peroxide (PO) induced mitochondrial fragmentation [3] | Surface area of mitochondria, p (treated vs untreated) [4] | Dendritic Mt CA [5] | Neurite Area [5] | Mitochondrial Morphology [7] | Neurite Area [7] | also measured
1 | Cc1ccccc1C(OCCN(C)C)c1ccccc1 (stereo not drawn) [ORPHENADRINE CITRATE] | 6.08 Z-scores | 14.3% | 25.5% | 3.26 Z-scores | 5.75 Z-scores | fully protected | p = 0.022 | 3.21 robust Z-scores | 0.08 robust Z-scores | – | – | –
2 | COc1cc(O)c2c(=O)c(O)c(-c3ccc(O)c(O)c3)oc2c1 [RHAMNETIN] | – | – | – | – | – | fully protected | p = 0.0564 | 4.48 robust Z-scores | 2.04 robust Z-scores | – | – | ATP production in neurons ([1]; after 24 hr of treatment): increase; ATP production kinetics, amplitude of single exponential fit ([6]; 12 μM, starting 20 min after addition, DMSO 22498±358): 10059±166; ATP production of isolated mitochondria (direct effect) ([6]; 12.5 μM, within the 45-min measurement period, vs DMSO): decreased; EC50 ([5]; read-out: Elongation (Dend Mt length) EC50): 200 nM; EC50 ([5]; read-out: Health (Ax Mt Circularity) EC50): 2700 nM; EC50 ([5]; read-out: Mt Content (Dend Mt CA) EC50): 200 nM; EC50 ([5]; read-out: Sprouting (Neurite Area) EC50): 300 nM
3 | CN(C)CCC=C1c2ccccc2COc2ccccc21 [doxepin hydrochloride] | 7.03 Z-scores | 18.3% | 26.1% | 3.44 Z-scores | 5.41 Z-scores | – | – | – | – | elongated | n.s. | axonal mitochondrial circularity ([7]; after 48 h of treatment): robust effects; basal rate of respiration ([8]; 10 μM, 24 h): weak, non-significant, but consistent trend towards an increased basal rate of respiration; State 3 and 3u respiration with Complex I substrates ([8]; 10 μM, 24 h, cultured neurons): significant increase; OCR ([8]; oxygen consumption rate, significant change): increased
4 | OC1(c2ccc(Cl)c(C(F)(F)F)c2)CCN(CCCC(c2ccc(F)cc2)c2ccc(F)cc2)CC1 [penfluridol] | 5.75 Z-scores | 22.4% | 25.2% | 4.29 Z-scores | 4.83 Z-scores | – | p = 0.066 | – | – | elongated | increased | EC50 ([1]; Mus musculus, Primary neuron, dose response, 15 concentrations from 6 nM to 100 uM): 30 nM; EC50 ([2]; Mus musculus, Primary neuron, read-out: TMRM-EC50): 50 nM; neuritic area ([7]; after 48 h of treatment): increase
